Tests used:
[1] = tested on: FAP-expressing HEK293T:hFAP tumor xenografts; test: Ex vivo biodistribution in HEK293T:hFAP tumor-bearing mice; conditions: 1 h post injection, mean ± SD, n = 4
Method: Biodistribution studies were also conducted at 1 h post injection with [^68Ga]Ga-AV01017, [^68Ga]Ga-AV01030, [^68Ga]Ga-AV01038, [^68Ga]Ga-HTK03041, and [^68Ga]Ga-FAPI-04 in HEK293T:hFAP tumor-bearing mice (Figure 6 and Table S5, Supplementary Materials). Tumor uptake values for [^68Ga]Ga-AV01017, [^68Ga]Ga-AV01030, [^68Ga]Ga-AV01038, [^68Ga]Ga-HTK03041, and [^68Ga]Ga-FAPI-04 were 2.99 ± 0.37, 3.69 ± 0.81, 3.64 ± 0.83, 0.62 ± 0.19, and 12.5 ± 2.00 %ID/g, respectively. There was a very low tumor uptake in mice injected with [^68Ga]Ga-HTK03041, showing very minimal FAP expression in this tumor model. The uptake levels of these tracers on the major organs and tissues are consistent with the trends observed in the LNCaP tumor-baring mice (Figure 5 and Supplemental Table S4).
(§1) Imaging and biodistribution studies were performed using male NOD.Cg-Rag1tm1Mom Il2rgtm1Wjl/SzJ (NRG) mice following previously published procedures. The experiments were conducted according to the guidelines established by the Canadian Council on Animal Care and approved by Animal Ethics Committee of the University of British Columbia. The mice were briefly sedated by inhalation of 2.5% isoflurane in oxygen, and 100 µL LNCaP (2 × 10^5 cells) or HEK293T:hFAP (8.5 × 10^6 cells) cells were inoculated subcutaneously behind the left shoulder. When the tumor grew to 5–8 mm in diameter over 3–4 weeks and 4–5 weeks for HEK293T:hFAP and LNCaP tumors, respectively, the mice were used for PET/CT imaging and biodistribution studies.
(§2) For biodistribution studies, the mice were injected with the radiotracer (~2–4 MBq) as described above. At 1 h post injection, the mice were euthanized by CO2 inhalation. Blood was withdrawn by cardiac puncture, and organs/tissues of interest were collected, weighed, and counted using a Perkin Elmer (Waltham, MA, USA) Wizard2 2480 automatic gamma counter.

[2] = tested on: PSMA-expressing LNCaP tumor xenografts; test: Ex vivo biodistribution in LNCaP tumor-bearing mice; conditions: LNCaP tumor-bearing mice, 1 h post injection, mean ± SD, n = 4
Method: Biodistribution studies were conducted at 1 h post injection with ^68Ga-labeled AV01017, AV01030, AV01038, HTK03041, and FAPI-04 in LNCaP tumor-bearing mice (Figure 5 and Table S4, Supplementary Materials). The results were consistent with the observation from their PET images. Tumor uptake values for [^68Ga]Ga-AV01017, [^68Ga]Ga-AV01030, [^68Ga]Ga-AV01038, [^68Ga]Ga-HTK03041, and [^68Ga]Ga-FAPI-04 were 4.38 ± 0.55, 5.17 ± 0.51, 4.25 ± 0.86, 23.1 ± 6.11, and 3.15 ± 1.43 %ID/g, respectively. […] Although not statistically significant, the bispecific tracers with a longer linker tend to have a higher blood uptake value (9.24 ± 1.55 %ID/g for [^68Ga]Ga-AV01017; 7.07 ± 0.31%ID/g for [^68Ga]Ga-AV01038; 5.75 ± 0.59 %ID/g for [^68Ga]Ga-AV01030) and a lower tumor-to-blood ratio (0.48 ± 0.11 for [^68Ga]Ga-AV01017; 0.60 ± 0.13 for [^68Ga]Ga-AV01038; 0.89 ± 0.03 for [^68Ga]Ga-AV01030).
as §1, §2

N#C[C@@H]1CC(F)(F)CN1C(=O)CNC(=O)c1ccnc2ccc(-c3cn(CC(=O)N[C@@H](CCCCNC(=O)CN4CCN(CC(=O)[O-])CCN(CC(=O)[O-])CCN(CC(=O)[O-])CC4)C(=O)NCC(=O)NC[C@H]4CC[C@H](C(=O)N[C@@H](Cc5c6ccccc6cc6ccccc56)C(=O)NCCCC[C@H](NC(=O)N[C@@H](CCC(=O)O)C(=O)O)C(=O)O)CC4)nn3)cc12.[68Ga+3] [[^68Ga]Ga-AV01030]
Adrenal glands uptake [1]: 3.15 ± 0.39 %ID/g
Blood uptake [1]: 5.68 ± 0.72 %ID/g
Bone uptake [1]: 3.59 ± 0.44 %ID/g
Brain uptake [1]: 0.12 ± 0.02 %ID/g
Fat uptake [1]: 0.63 ± 0.20 %ID/g
HEK293T:hFAP tumor uptake [1]: 3.69 ± 0.81 %ID/g
Heart uptake [1]: 2.20 ± 0.46 %ID/g
Kidneys uptake [1]: 30.0 ± 8.71 %ID/g
Lacrimal gland uptake [1]: 0.20 ± 0.24 %ID/g
Large Intestine uptake [1]: 1.15 ± 0.10 %ID/g
Liver uptake [1]: 1.51 ± 0.33 %ID/g
Lungs uptake [1]: 3.02 ± 0.25 %ID/g
Muscle uptake [1]: 1.78 ± 0.58 %ID/g
Pancreas uptake [1]: 3.26 ± 0.82 %ID/g
Salivary glands uptake [1]: 7.01 ± 2.25 %ID/g
Small Intestine uptake [1]: 1.23 ± 0.16 %ID/g
Spleen uptake [1]: 7.41 ± 1.75 %ID/g
Stomach uptake [1]: 0.42 ± 0.04 %ID/g
Testes uptake [1]: 0.66 ± 0.08 %ID/g
Thyroid uptake [1]: 7.70 ± 1.08 %ID/g
Tumor/bone uptake ratio [1]: 1.04 ± 0.31
Tumor/muscle uptake ratio [1]: 2.12 ± 0.30
Adrenal glands uptake [2]: 3.13 ± 1.25 %ID/g
Blood uptake [2]: 5.75 ± 0.59 %ID/g
Bone uptake [2]: 4.48 ± 0.59 %ID/g
Brain uptake [2]: 0.12 ± 0.01 %ID/g
Fat uptake [2]: 0.68 ± 0.12 %ID/g
Heart uptake [2]: 2.41 ± 0.13 %ID/g
Kidneys uptake [2]: 44.0 ± 2.42 %ID/g
LNCaP tumor uptake [2]: 5.17 ± 0.51 %ID/g
Lacrimal glands uptake [2]: 0.44 ± 0.68 %ID/g
Large Intestine uptake [2]: 1.32 ± 0.29 %ID/g
Liver uptake [2]: 1.43 ± 0.26 %ID/g
Lungs uptake [2]: 2.93 ± 0.28 %ID/g
Muscle uptake [2]: 1.59 ± 0.14 %ID/g
Pancreas uptake [2]: 3.63 ± 0.29 %ID/g
Salivary glands uptake [2]: 4.76 ± 1.79 %ID/g
Seminal vesicle uptake [2]: 1.04 ± 0.13 %ID/g
Small Intestine uptake [2]: 1.58 ± 0.13 %ID/g
Spleen uptake [2]: 6.50 ± 1.37 %ID/g
Stomach uptake [2]: 0.44 ± 0.07 %ID/g
Testes uptake [2]: 0.70 ± 0.08 %ID/g
Thyroid uptake [2]: 8.33 ± 0.41 %ID/g
Tumor/blood uptake ratio [2]: 0.89 ± 0.03
Tumor/bone uptake ratio [2]: 1.17 ± 0.26
Tumor/kidney uptake ratio [2]: 0.11 ± 0.00
Tumor/muscle uptake ratio [2]: 3.25 ± 0.39

N#C[C@@H]1CC(F)(F)CN1C(=O)CNC(=O)c1ccnc2ccc(OCc3cn(CC(=O)N[C@@H](CCCCNC(=O)CN4CCN(CC(=O)[O-])CCN(CC(=O)[O-])CCN(CC(=O)[O-])CC4)C(=O)NCC(=O)NC[C@H]4CC[C@H](C(=O)N[C@@H](Cc5c6ccccc6cc6ccccc56)C(=O)NCCCC[C@H](NC(=O)N[C@@H](CCC(=O)O)C(=O)O)C(=O)O)CC4)nn3)cc12.[68Ga+3] [[^68Ga]Ga-AV01038]
Adrenal glands uptake [1]: 6.14 ± 3.79 %ID/g
Blood uptake [1]: 7.45 ± 1.70 %ID/g
Bone uptake [1]: 3.03 ± 1.12 %ID/g
Brain uptake [1]: 0.13 ± 0.02 %ID/g
Fat uptake [1]: 0.53 ± 0.10 %ID/g
HEK293T:hFAP tumor uptake [1]: 3.64 ± 0.83 %ID/g
Heart uptake [1]: 2.69 ± 0.22 %ID/g
Kidneys uptake [1]: 25.0 ± 1.76 %ID/g
Lacrimal gland uptake [1]: 0.22 ± 0.16 %ID/g
Large Intestine uptake [1]: 0.99 ± 0.17 %ID/g
Liver uptake [1]: 2.16 ± 0.33 %ID/g
Lungs uptake [1]: 3.83 ± 0.55 %ID/g
Muscle uptake [1]: 1.23 ± 0.11 %ID/g
Pancreas uptake [1]: 3.82 ± 1.29 %ID/g
Salivary glands uptake [1]: 4.02 ± 0.69 %ID/g
Seminal vesicle uptake [1]: 1.15 ± 0.69 %ID/g
Small Intestine uptake [1]: 1.70 ± 0.19 %ID/g
Spleen uptake [1]: 5.47 ± 1.03 %ID/g
Stomach uptake [1]: 0.60 ± 0.18 %ID/g
Testes uptake [1]: 0.74 ± 0.09 %ID/g
Thyroid uptake [1]: 6.51 ± 1.07 %ID/g
Tumor/blood uptake ratio [1]: 0.49 ± 0.37
Tumor/bone uptake ratio [1]: 1.17 ± 0.40
Tumor/kidney uptake ratio [1]: 0.11 ± 0.02
Tumor/muscle uptake ratio [1]: 2.21 ± 0.17
Adrenal glands uptake [2]: 3.69 ± 2.54 %ID/g
Blood uptake [2]: 7.07 ± 0.31 %ID/g
Bone uptake [2]: 4.64 ± 1.70 %ID/g
Brain uptake [2]: 0.15 ± 0.02 %ID/g
Fat uptake [2]: 1.01 ± 0.28 %ID/g
Heart uptake [2]: 3.26 ± 0.24 %ID/g
Kidneys uptake [2]: 40.5 ± 8.26 %ID/g
LNCaP tumor uptake [2]: 4.25 ± 0.86 %ID/g
Lacrimal glands uptake [2]: 0.06 ± 0.13 %ID/g
Large Intestine uptake [2]: 1.65 ± 0.31 %ID/g
Liver uptake [2]: 2.06 ± 0.13 %ID/g
Lungs uptake [2]: 3.74 ± 0.78 %ID/g
Muscle uptake [2]: 1.68 ± 0.21 %ID/g
Pancreas uptake [2]: 3.91 ± 0.20 %ID/g
Salivary glands uptake [2]: 6.41 ± 1.19 %ID/g
Seminal vesicle uptake [2]: 1.51 ± 0.08 %ID/g
Small Intestine uptake [2]: 2.12 ± 0.24 %ID/g
Spleen uptake [2]: 6.77 ± 4.86 %ID/g
Stomach uptake [2]: 0.64 ± 0.11 %ID/g
Testes uptake [2]: 1.04 ± 0.10 %ID/g
Thyroid uptake [2]: 11.1 ± 1.62 %ID/g
Tumor/blood uptake ratio [2]: 0.60 ± 0.13
Tumor/bone uptake ratio [2]: 0.97 ± 0.30
Tumor/kidney uptake ratio [2]: 0.10 ± 0.02
Tumor/muscle uptake ratio [2]: 2.52 ± 0.33
